A word on the inhibition: it is the percentage by which the read-out fell short of the control.

Read-outs that look alike come from different tables or passages of the source.

For assay [1], the system named is MV4-11 human acute myeloid leukemia cell with FLT3-ITD mutation. The assay can be described thus: MV4-11 cell proliferation assay (CellTiter 96). Format: cell-based. The settings on record: MV4-11 cells, 72 hours treatment, CellTiter96, read-out: anti-proliferation activity MV4-11 (FLT3-ITD), IC50 ranking. Put shortly: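 Cells seeded at 6500/well in IMDM with 10% heat-inactivated FBS, left overnight at 37 °C, 5% CO2, then exposed to increasing compound concentrations for 72 h. Viability read as absorbance at 490 nm after 2–4 h with CellTiter96 AQueous One reagent.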

For assay [2], the system named is Molm-14 human acute myeloid leukemia cell with FLT3-ITD mutation. The assay is described as follows: Molm-14 cell proliferation assay (CellTiter 96). The settings on record: Molm-14 cells, 72 hours treatment, CellTiter96, read-out: anti-proliferation activity Molm-14 (FLT3-ITD), IC50 ranking. The class given is cell-based. Put shortly:
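Molm-14 (FLT3-ITD AML) cells in RPMI 1640 with 10% heat-inactivated FBS were seeded at 25000 cells/well, incubated overnight at 37° C, 5% CO2, then treated with increasing compound concentrations for 72 hours. Viability was read as absorbance at 490 nm after 2˜4 hours with CellTiter96 AQueous One reagent.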

Assay [3] has as its system HCC827 NSCLC cell with EGFR exon 19 deletion mutation. The assay is described as follows: HCC827 cell proliferation assay (counter screen). Format: cell-based, human. The settings on record: HCC827 cells, 72 hours treatment, CellTiter96, read-out: anti-proliferation activity HCC827 EGFR Exon19 del, IC50 ranking. Put shortly: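 HCC827 cells (EGFR exon 19 deletion) were seeded at 8000 cells/well in RPMI1640 with 10% FBS, then exposed to increasing compound concentrations for 72 h at 37 °C. Viability was read by CellTiter96 AQueous One (MTS), absorbance 490 nm after 2–4 h.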

The subject of assay [4] is phosphorylation of FLT3 and its down-stream effector STAT5. The assay can be described thus: Western blotting of p-FLT3 and p-STAT5 in MV4-11 cells. Format: cell-based. The conditions noted are these: Homo sapiens; at 30 nM treatment, 3 hours, FLT3-ITD positive MV4-11 leukemia cells; read-out: inhibition activity against phosphorylation of FLT3 and its down-stream effector STAT5. Put shortly: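 MV4-11 cells held overnight in IMDM with 0.1% FBS, then 3 million cells treated with compound for 3 h. Whole lysates immunoblotted for p-FLT3 (Tyr-591), p-STAT5 (Tyr-694) and actin. Band intensities at 30 nM compared to DMSO control; % inhibition = (1 − relative intensity) × 100.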
On the technique in general: Immunoblotting shows a protein as a band on a membrane.

For the molecule `Cc1ccc(-c2cc3c(s2)Cc2c(-c4ccc5cnn(C)c5c4)n[nH]c2-3)cn1` [Compound 33, 3-(1-methyl-1H-indazol-6-yl)-6-(6-methylpyridin-3-yl)-1,4-dihydrothieno [2′,3′:4,5]cyclopenta [1,2-c]pyrazole], the results for the IC50 in assay [1], in assay [2] and in assay [3] were 30 to 100 nM, 30 to 100 nM and over 10000 nM, respectively. Also, the inhibition at 0.03 µM in assay [4] was over 50%.
`Cn1cc(-c2cc3c(s2)Cc2c(-c4ccc5cnn(C)c5c4)n[nH]c2-3)cc1C(=O)N1CCOCC1` [Compound 46, (1-methyl-4-(3-(1-methyl-1H-indazol-6-yl)-1,4-dihydrothieno[2′,3′:4,5]cyclopenta[1,2-c]pyrazol-6-yl)-1H-pyrrol-2-yl) (morpholino)methanone]: the IC50 in assay [1] (Homo sapiens, MV4-11, 72 h) was under 30 nM; in assay [2] (Homo sapiens), under 30 nM; in assay [3] (Homo sapiens), over 10000 nM. In addition, the inhibition at 0.03 µM in assay [4] is over 50%.
Regarding `Cn1ncc2ccc(-c3n[nH]c4c3Cc3sc(-c5ccc(CN6CCOCC6)c(F)c5)cc3-4)cc21` [Compound 25, 4-(2-fluoro-4-(3-(1-methyl-1H-indazol-6-yl)-1,4-dihydrothieno[2′,3′:4,5]cyclopenta[1,2-c]pyrazol-6-yl)benzyl)morpholine], the IC50 in assay [1] (Homo sapiens, MV4-11, 72 h) was under 30 nM; in assay [2] (Homo sapiens), 30 to 100 nM; in assay [3] (Homo sapiens), over 10000 nM. The inhibition at 0.03 µM in assay [4] was over 50%.
For `CN(C)C(=O)c1ccc(-c2cc3c(s2)Cc2c(-c4ccc5cnn(C)c5c4)n[nH]c2-3)cc1` [Compound 49, N,N-dimethyl-4-(3-(1-methyl-1H-indazol-6-yl)-1,4-dihydrothieno [2′,3′:4,5]cyclopenta [1,2-c]pyrazol-6-yl) benzamide], in that order: under 30 nM, under 30 nM, over 10000 nM and over 50%.
For `Cn1ncc2ccc(-c3n[nH]c4c3Cc3sc(-c5csc(C(=O)N6CCOCC6)c5)cc3-4)cc21` [Compound 48, (4-(3-(1-methyl-1H-indazol-6-yl)-1,4-dihydro-thieno[2′,3′:4,5]cyclopenta [1,2-c]pyrazol-6-yl)thiophen-2-yl) (morpholino)methanone], in that order: under 30 nM, under 30 nM, over 10000 nM and over 50%.
For `Cn1ncc2ccc(-c3n[nH]c4c3Cc3sc(-c5ccc(C(=O)N6CCOCC6)nc5)cc3-4)cc21` [Compound 23, (5-(3-(1-methyl-1H-indazol-6-yl)-1,4-dihydro-thieno[2′,3′:4,5]cyclopenta [1,2-c]pyrazol-6-yl)pyridin-2-yl)(morpholino) methanone], in that order: under 30 nM, 30 to 100 nM, over 10000 nM and over 50%.
Consider `Cn1ncc2ccc(-c3n[nH]c4c3Cc3sc(-c5csc(C(=O)N6CCOCC6)n5)cc3-4)cc21` [Compound 60, (4-(3-(1-methyl-1H-indazol-6-yl)-1,4-dihydro-thieno[2′,3′:4,5]cyclopenta [1,2-c]pyrazol-6-yl)thiazol-2-yl)(morpholino) methanone], for which the IC50 in assay [1] (Homo sapiens, MV4-11, 72 h) is under 30 nM; in assay [2] (Homo sapiens) it was under 30 nM; in assay [3] (Homo sapiens), 1000 to 10000 nM. Also, the inhibition at 0.03 µM in assay [4] is over 50%.
Take `C[C@@H]1CN(Cc2ccc(-c3cc4c(s3)Cc3c(-c5ccc6cn[nH]c6c5)n[nH]c3-4)cc2)C[C@H](C)O1` [Compound 7, (2S,6R)-4-(4-(3-(1H-indazol-6-yl)-1,4-dihydrothieno[2′,3′:4,5]cyclopenta [1,2-c]pyrazol-6-yl)benzyl)-2,6-dimethylmorpholine]: the IC50 in assay [1] (Homo sapiens, MV4-11, 72 h) was under 30 nM; in assay [2] (Homo sapiens), under 30 nM; in assay [3] (Homo sapiens) it was over 10000 nM. Moreover, the inhibition at 0.03 µM in assay [4] was over 50%.
